Source: US20230131899A1, “INHIBITORS OF MICROBIALLY INDUCED AMYLOID” (Axial Therapeutics, Inc., priority 2020, published 2023)
Read-outs that look alike come from different tables or passages of the source.

Test system: CsgA gene expression (csgBAC promoter-GFP reporter) in E. coli UTI89
Test: In vitro live cell fluorescent reporter assay of CsgA transcription (Reporter Assay)
Assay type: cell-based
Details: Escherichia coli
Method in brief: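 Compounds at 0.14–100 μM (1% DMSO final) incubated 20 h at 27 °C in YESCA broth with UTI89 carrying a single-copy GFP reporter under the csgBAC intergenic promoter region, inoculum OD600 0.003. Fluorescence normalized to vehicle wells gave IC50 and 50%-of-vehicle concentration; OD600 reduction >10% flagged growth impact.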

[1] = read-out: Reporter Assay Abs IC50 (activity range), median Abs IC50 in the CsgA reporter assay, class symbol
[2] = read-out: Reporter Assay Abs IC50 (μM), median Abs IC50 in the CsgA reporter assay, N/A = maximum expression reduction is <50% of control
[3] = read-out: Reporter Assay Abs IC50, activity range, class symbol

SMILES | IC50 [1] | IC50 [2] | IC50 [3]
O=C(O)C1n2c(c(-c3cccc(C(F)(F)F)c3)c(Cc3cccc4ccccc34)nc2=O)SC12CCCC2 (stereo not shown) [Compound 053, 7′-(naphthalen-1-ylmethyl)-5′-oxo-8′-(3-(trifluoromethyl)phenyl)-3′H,5′H-spiro[cyclopentane-1,2′-thiazolo[3,2-c]pyrimidine]-3′-carboxylic acid] | > 10 µM | 16.3 µM | –
CCCN1CC(C(=O)O)n2c1c(-c1cccc(C(F)(F)F)c1)c(Cc1cccc3ccccc13)c(Cl)c2=O (stereo not shown) [Compound 162, 6-chloro-7-(naphthalen-1-ylmethyl)-5-oxo-1-propyl-8-(3-(trifluoromethyl)phenyl)-1,2,3,5-tetrahydroimidazo[1,2-a]pyridine-3-carboxylic acid] | – | 1.1 µM | < 1.3 µM
Cn1c(=O)c2c(nc(CCCCN3CC(C(=O)O)n4c(c(-c5cccc(C(F)(F)F)c5)c(Cc5cccc6ccccc56)cc4=O)S3(=O)=O)n2C)n(C)c1=O (stereo not shown) [Compound 044, 8-(naphthalen-1-ylmethyl)-6-oxo-9-(3-(trifluoromethyl)phenyl)-2-(4-(1,3,7-trimethyl-2,6-dioxo-2,3,6,7-tetrahydro-1H-purin-8-yl)butyl)-3,4-dihydro-2H,6H-pyrido[1,2-e][1,2,5]thiadiazine-4-carboxylic acid 1,1-dioxide] | 1.3 to 4.5 µM | 1.5 µM | –
Cc1c(Cc2cccc3ccccc23)c(-c2cccc(C(F)(F)F)c2)c2n(c1=O)C(C(=O)O)CN(C)S2(=O)=O (stereo not shown) [Compound 068, 2,7-dimethyl-8-(naphthalen-1-ylmethyl)-6-oxo-9-(3-(trifluoromethyl)phenyl)-3,4-dihydro-2H,6H-pyrido[1,2-e][1,2,5]thiadiazine-4-carboxylic acid 1,1-dioxide] | > 10 µM | 11.1 µM | –
Nc1c(Cc2ccc(N)c3ccccc23)c(-c2cccc(C(F)(F)F)c2)c2n(c1=O)C(C(=O)O)CNS2(=O)=O (stereo not shown) [Compound 041] | > 10 µM | 20.2 µM | –
O=C(O)C1CN(CC2CCOCC2)c2c(-c3cccc(C(F)(F)F)c3)c(Cc3cccc4ccccc34)c(Cl)c(=O)n21 (stereo not shown) [Compound 182, 6-chloro-7-(naphthalen-1-ylmethyl)-5-oxo-1-((tetrahydro-2H-pyran-4-yl)methyl)-8-(3-(trifluoromethyl)phenyl)-1,2,3,5-tetrahydroimidazo[1,2-a]pyridine-3-carboxylic acid] | – | 2.5 µM | 1.3 to 4.5 µM
O=C(O)C1CN(CCCCCO)c2c(-c3cccc(C(F)(F)F)c3)c(Cc3cccc4ccccc34)c(Cl)c(=O)n21 (stereo not shown) [Compound 199, 6-chloro-1-(5-hydroxypentyl)-7-(naphthalen-1-ylmethyl)-5-oxo-8-(3-(trifluoromethyl)phenyl)-1,2,3,5-tetrahydroimidazo[1,2-a]pyridine-3-carboxylic acid] | – | 6.9 µM | 4.6 to 10 µM
NC(=O)c1c(Cc2cccc3ccccc23)c(-c2cccc(C(F)(F)F)c2)c2n(c1=O)C(C(=O)O)CN(CCCO)S2(=O)=O (stereo not shown) [Compound 184, 7-carbamoyl-2-(3-hydroxypropyl)-8-(naphthalen-1-ylmethyl)-6-oxo-9-(3-(trifluoromethyl)phenyl)-3,4-dihydro-2H,6H-pyrido[1,2-e][1,2,5]thiadiazine-4-carboxylic acid 1,1-dioxide] | – | 2.7 µM | 1.3 to 4.5 µM
CN(C)C(=O)C1CN(C)S(=O)(=O)c2c(-c3cccc(C(F)(F)F)c3)c(Cc3cccc4ccccc34)cc(=O)n21 (stereo not shown) [Compound 032, N,N-2-trimethyl-8-(naphthalen-1-ylmethyl)-6-oxo-9-(3-(trifluoromethyl)phenyl)-3,4-dihydro-2H,6H-pyrido[1,2-e][1,2,5]thiadiazine-4-carboxamide 1,1-dioxide] | 1.3 to 4.5 µM | 3.3 µM | –
O=C(O)C1CN(CCC2CCCCC2)c2c(-c3cccc(C(F)(F)F)c3)c(Cc3cccc4ccccc34)c(Cl)c(=O)n21 (stereo not shown) [Compound 207, 6-chloro-1-(2-cyclohexylethyl)-7-(naphthalen-1-ylmethyl)-5-oxo-8-(3-(trifluoromethyl)phenyl)-1,2,3,5-tetrahydroimidazo[1,2-a]pyridine-3-carboxylic acid] | – | 0.7 µM | < 1.3 µM
O=C(O)C1CN(Cc2ccccc2CO)c2c(-c3cccc(C(F)(F)F)c3)c(Cc3cccc4ccccc34)c(Cl)c(=O)n21 (stereo not shown) [Compound 181, 6-chloro-1-(2-(hydroxymethyl)benzyl)-7-(naphthalen-1-ylmethyl)-5-oxo-8-(3-(trifluoromethyl)phenyl)-1,2,3,5-tetrahydroimidazo[1,2-a]pyridine-3-carboxylic acid] | – | 2 µM | 1.3 to 4.5 µM
CCc1c(Cc2cccc3ccccc23)c(-c2cccc(C(F)(F)F)c2)c2n(c1=O)C(C(=O)O)CN2Cc1ccccc1 (stereo not shown) [Compound 140, 1-benzyl-6-ethyl-7-(naphthalen-1-ylmethyl)-5-oxo-8-(3-(trifluoromethyl)phenyl)-1,2,3,5-tetrahydroimidazo[1,2-a]pyridine-3-carboxylic acid] | – | 1 µM | < 1.3 µM
CN1CC(C(=O)O)n2c(c(-c3cccc(C(F)(F)F)c3)c(Cc3cccc4ccccc34)c(NCc3ccccc3)c2=O)S1(=O)=O (stereo not shown) [Compound 071] | 1.3 to 4.5 µM | 1.6 µM | –
O=C(O)C1CN(C[C@@H](O)CO)S(=O)(=O)c2c(-c3cccc(C(F)(F)F)c3)c(Cc3cccc4ccccc34)cc(=O)n21 (mixture of isomers) [Compound 065b, 2-((R)-2,3-dihydroxypropyl)-8-(naphthalen-1-ylmethyl)-6-oxo-9-(3-(trifluoromethyl)phenyl)-3,4-dihydro-2H,6H-pyrido[1,2-e][1,2,5]thiadiazine-4-carboxylic acid 1,1-dioxide] | > 10 µM | 18.1 µM | –
CC(C)N1CC(C(=O)O)n2c(c(-c3cccc(C(F)(F)F)c3)c(Cc3cccc4ccccc34)c(C(N)=O)c2=O)S1(=O)=O (stereo not shown) [Compound 175, 7-carbamoyl-2-isopropyl-8-(naphthalen-1-ylmethyl)-6-oxo-9-(3-(trifluoromethyl)phenyl)-3,4-dihydro-2H,6H-pyrido[1,2-e][1,2,5]thiadiazine-4-carboxylic acid 1,1-dioxide] | – | 1.4 µM | 1.3 to 4.5 µM
O=C(O)C1CN(Cc2cccc(O)c2)c2c(-c3cccc(C(F)(F)F)c3)c(Cc3cccc4ccccc34)c(Cl)c(=O)n21 (stereo not shown) [Compound 196, 6-chloro-1-(3-hydroxybenzyl)-7-(naphthalen-1-ylmethyl)-5-oxo-8-(3-(trifluoromethyl)phenyl)-1,2,3,5-tetrahydroimidazo[1,2-a]pyridine-3-carboxylic acid] | – | 2.8 µM | 1.3 to 4.5 µM
CNC(=O)CCCN1CC(C(=O)O)n2c(c(-c3cccc(C(F)(F)F)c3)c(Cc3cccc4ccccc34)cc2=O)S1(=O)=O (stereo not shown) [Compound 037, 2-(4-(methylamino)-4-oxobutyl)-8-(naphthalen-1-ylmethyl)-6-oxo-9-(3-(trifluoromethyl)phenyl)-3,4-dihydro-2H,6H-pyrido[1,2-e][1,2,5]thiadiazine-4-carboxylic acid 1,1-dioxide] | > 10 µM | 23.6 µM | –
CCCCN1CC(C(=O)O)n2c(c(-c3cccc(C(F)(F)F)c3)c(Cc3cccc4ccccc34)c(C(N)=O)c2=O)S1(=O)=O (stereo not shown) [Compound 177, 2-butyl-7-carbamoyl-8-(naphthalen-1-ylmethyl)-6-oxo-9-(3-(trifluoromethyl)phenyl)-3,4-dihydro-2H,6H-pyrido[1,2-e][1,2,5]thiadiazine-4-carboxylic acid 1,1-dioxide] | – | 1.3 µM | 1.3 to 4.5 µM
O=C(O)C1CSc2c(-c3cccc(C(F)(F)F)c3)c(Cc3cccc4ccccc34)cc(=S)n21 (stereo not shown) [Compound 054, 7-(naphthalen-1-ylmethyl)-5-thioxo-8-(3-(trifluoromethyl)phenyl)-2,3-dihydro-5H-thiazolo[3,2-a]pyridine-3-carboxylic acid] | 4.6 to 10 µM | 6.3 µM | –
N#Cc1cccc(CN2CC(C(=O)O)n3c2c(-c2cccc(C(F)(F)F)c2)c(Cc2cccc4ccccc24)c(Cl)c3=O)c1 (stereo not shown) [Compound 168, 6-chloro-1-(3-cyanobenzyl)-7-(naphthalen-1-ylmethyl)-5-oxo-8-(3-(trifluoromethyl)phenyl)-1,2,3,5-tetrahydroimidazo[1,2-a]pyridine-3-carboxylic acid] | – | 1.3 µM | 1.3 to 4.5 µM
CC1(C(=O)O)CNS(=O)(=O)c2c(-c3cccc(C(F)(F)F)c3)c(Cc3cccc4ccccc34)cc(=O)n21 (stereo not shown) [Compound 042, 4-methyl-8-(naphthalen-1-ylmethyl)-6-oxo-9-(3-(trifluoromethyl)phenyl)-3,4-dihydro-2H,6H-pyrido[1,2-e][1,2,5]thiadiazine-4-carboxylic acid 1,1-dioxide] | 1.3 to 4.5 µM | 3.3 µM | –
CCCN1CC(C(=O)O)n2c(c(-c3cccc(C(F)(F)F)c3)c(Cc3cccc4ccccc34)c(OCC)c2=O)S1(=O)=O (stereo not shown) [Compound 143, 7-ethoxy-8-(naphthalen-1-ylmethyl)-6-oxo-2-propyl-9-(3-(trifluoromethyl)phenyl)-3,4-dihydro-2H,6H-pyrido[1,2-e][1,2,5]thiadiazine-4-carboxylic acid 1,1-dioxide] | – | 5.2 µM | 4.6 to 10 µM
COc1ccc(CN2CC(C(=O)O)n3c2c(-c2cccc(C(F)(F)F)c2)c(Cc2cccc4ccccc24)c(Cl)c3=O)cc1 (stereo not shown) [Compound 192, 6-chloro-1-(4-methoxybenzyl)-7-(naphthalen-1-ylmethyl)-5-oxo-8-(3-(trifluoromethyl)phenyl)-1,2,3,5-tetrahydroimidazo[1,2-a]pyridine-3-carboxylic acid] | – | 2.5 µM | 1.3 to 4.5 µM
